Experiments:
SHV-5 = target: T1, SHV-5 (Klebsiella pneumoniae, UniProt P0A3M1); experiment: β-lactamase enzyme inhibition assay, SHV-5 (cefotaxime substrate); format: biochemical
T1 construct: made in house; host or cells: E. coli BL21(DE3)
Outline: (§1)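 Read-out is the rate of β-lactam ring hydrolysis monitored by absorbance: 300 nm for imipenem with KPC-2 and 260 nm for cefotaxime with SHV-5. Recombinant native enzymes were first incubated with compound at 37 °C for 15 min. The IC50 is the inhibitor concentration that halves the initial hydrolysis rate.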

[1] = tested on: K. pneumoniae producing the Class D carbapenemase OXA-48; experiment: Broth microdilution MIC assay with meropenem, K. pneumoniae OXA-48; format: cell-based; conditions: Fixed Mero (meropenem) 4 μg/mL; K. p. 11978 OXA-48
Outline: (§2)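 Visual MIC readout of the test compound after 16-20 hours at 37° C, measured in the presence of a constant 4 μg/ml β-lactam. Compound concentrations spanned 16 to 0.125 μg/mL in 2-fold steps in cation-adjusted Mueller Hinton broth.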

[2] = tested on: K. pneumoniae expressing the Class A carbapenemase KPC-2; experiment: Broth microdilution MIC assay with meropenem, K. pneumoniae KPC-2; format: cell-based; conditions: Fixed Mero (meropenem) 4 μg/mL; K. p. 156319 KPC-3
Outline: as §2

AmpC = target: T2, AmpC (Enterobacter cloacae, UniProt P05364); experiment: β-lactamase enzyme inhibition assay, p99 AmpC (nitrocefin substrate); format: biochemical
T2 construct: made in house; host or cells: E. coli BL21(DE3)
Outline: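 Read-out is the rate of β-lactam ring hydrolysis monitored by absorbance. Recombinant native enzymes were first incubated with compound at 37 °C for 15 min. The IC50 is the inhibitor concentration that halves the initial hydrolysis rate.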

OXA-48 = OXA-48 (UniProt Q6XEC0); experiment: β-lactamase enzyme inhibition assay, Class D oxacillinase; format: biochemical; conditions: read-out: OXA-48
[3] = tested on: E. cloacae expressing the Class C P99; experiment: Broth microdilution MIC assay with ceftazidime, E. cloacae P99; format: cell-based; conditions: Fixed CAZ (ceftazidime) 4 μg/mL; E. cl. 144200 p99 AmpC
Outline: as §2

VIM-2 = target: T3, VIM-2 (Escherichia coli, UniProt Q5U7L7); experiment: β-lactamase enzyme inhibition assay, VIM-2 (nitrocefin substrate); format: biochemical; conditions: Class B; nitrocefin substrate, 486 nm; read-out: VIM-2
T3 construct: made in house; host or cells: E. coli BL21(DE3)
Outline: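 Nitrocefin hydrolysis, read at 486 nm over 10 min, served as the measure of VIM-2 activity. The enzyme had been incubated with compound for 15 min at 37 °C before 100 μM substrate was added, and IC50 values were fitted from percent inhibition of the initial rate.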

[4] = tested on: E. coli expressing the Class A Extended Spectrum Beta-Lactamase (ESBL) CTX-M-15; experiment: Broth microdilution MIC assay with ceftazidime, E. coli CTX-M-15; format: cell-based; conditions: Fixed CAZ (ceftazidime) 4 μg/mL; E. coli ESBL4 CTX-M-15
Outline: as §2

[5] = tested on: P. aeruginosa expressing the Class B carbapenemase VIM-2; experiment: Broth microdilution MIC assay with meropenem, P. aeruginosa VIM-2; format: cell-based; conditions: Fixed Mero (meropenem) 4 μg/mL; P. aerug. 2775 VIM-2
Outline: as §2

[6] = tested on: K. pneumoniae expressing the class A carbapenemase KPC-2 and the class B carbapenemase VIM-4; experiment: Broth microdilution MIC assay with meropenem, K. pneumoniae KPC-2 and VIM-4; format: cell-based; conditions: Fixed Mero (meropenem) 4 μg/mL; K. p. A-1797 KPC-2 VIM-4
Outline: as §2

KPC-2 = target: T4, KPC-2 (Klebsiella pneumoniae, UniProt Q9F663); experiment: β-lactamase enzyme inhibition assay, KPC-2 (imipenem substrate); format: biochemical; conditions: Class A; imipenem substrate, 300 nm; read-out: KPC-2
T4 construct: made in house; host or cells: E. coli BL21(DE3)
Outline: as §1

T1 sequence (P0A3M1 22-286): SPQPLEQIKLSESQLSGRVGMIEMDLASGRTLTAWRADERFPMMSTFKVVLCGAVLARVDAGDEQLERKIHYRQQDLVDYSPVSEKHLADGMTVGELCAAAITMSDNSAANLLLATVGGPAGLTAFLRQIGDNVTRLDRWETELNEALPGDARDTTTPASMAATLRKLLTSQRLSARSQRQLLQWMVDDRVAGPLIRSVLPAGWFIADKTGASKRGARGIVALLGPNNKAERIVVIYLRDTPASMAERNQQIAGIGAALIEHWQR
T2 sequence (P05364 21-381): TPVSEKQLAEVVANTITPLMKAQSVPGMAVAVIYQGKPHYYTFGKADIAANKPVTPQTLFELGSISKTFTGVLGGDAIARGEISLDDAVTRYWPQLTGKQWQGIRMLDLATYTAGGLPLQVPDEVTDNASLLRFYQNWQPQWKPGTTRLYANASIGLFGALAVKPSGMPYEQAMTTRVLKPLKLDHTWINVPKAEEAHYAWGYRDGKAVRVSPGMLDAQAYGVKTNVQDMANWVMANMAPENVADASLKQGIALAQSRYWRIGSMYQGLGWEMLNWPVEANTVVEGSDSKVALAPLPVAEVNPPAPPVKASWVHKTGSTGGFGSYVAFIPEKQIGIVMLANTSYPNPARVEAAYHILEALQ
T4 sequence (Q9F663 25-293, looked up): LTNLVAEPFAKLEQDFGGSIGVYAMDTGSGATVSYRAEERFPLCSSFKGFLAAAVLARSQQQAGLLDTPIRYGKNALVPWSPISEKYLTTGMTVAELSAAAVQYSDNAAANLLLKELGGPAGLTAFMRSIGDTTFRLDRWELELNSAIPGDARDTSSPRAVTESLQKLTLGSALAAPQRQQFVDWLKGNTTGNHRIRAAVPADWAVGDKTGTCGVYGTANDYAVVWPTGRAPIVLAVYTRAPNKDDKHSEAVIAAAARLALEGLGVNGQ

| Structure (SMILES) | IC50 (SHV-5) [nM] | MIC (μg/mL) of Exemplary Compounds in presence of fixed β-lactams: K. p. 11978 OXA-48 [1] | MIC (μg/mL) of Exemplary Compounds in presence of fixed β-lactams: K. p. 156319 KPC-3 [2] | IC50 (AmpC) [nM] | IC50 (OXA-48) [nM] | MIC (μg/mL) of Exemplary Compounds in presence of fixed β-lactams: E. cl. 144200 p99 AmpC [3] | IC50 (VIM-2) [nM] | MIC (μg/mL) of Exemplary Compounds in presence of fixed β-lactams: E. coli ESBL4 CTX-M-15 [4] | MIC (μg/mL) of Exemplary Compounds in presence of fixed β-lactams: P. aerug. 2775 VIM-2 [5] | MIC (μg/mL) of Exemplary Compounds in presence of fixed β-lactams: K. p. A-1797 KPC-2 VIM-4 [6] | IC50 (KPC-2) [nM] |
| --- | --- | --- | --- | --- | --- | --- | --- | --- | --- | --- | --- |
| NCCCNC(=O)c1cn(CC(=O)N[C@H]2Cc3cccc(C(=O)O)c3OB2O)nn1 [Example 65, (R)-3-(2-(4-((3-aminopropyl)carbamoyl)-1H-1,2,3-triazol-1-yl)acetamido)-2-hydroxy-3,4-dihydro-2H-benzo[e][1,2]oxaborinine-8-carboxylic acid] | < 100 | B (B represents an MIC between 1 and 16 μg/mL inclusive) | C (C represents an MIC of <1 μg/mL) | < 100 | 100 to 1000 | C (C represents an MIC of <1 μg/mL) | < 100 | C (C represents an MIC of <1 μg/mL) | B (B represents an MIC between 1 and 16 μg/mL inclusive) | B (B represents an MIC between 1 and 16 μg/mL inclusive) | < 100 |
| NCCn1cnc(C(=O)N[C@H]2Cc3cccc(C(=O)O)c3OB2O)n1 [Example 71, (R)-3-(1-(2-aminoethyl)-1H-1,2,4-triazole-3-carboxamido)-2-hydroxy-3,4-dihydro-2H-benzo[e][1,2]oxaborinine-8-carboxylic acid] | 100 to 1000 | A (A represents an MIC>16 μg/mL) | C (C represents an MIC of <1 μg/mL) | < 100 | 10000 to 100000 | C (C represents an MIC of <1 μg/mL) | 100 to 1000 | C (C represents an MIC of <1 μg/mL) | C (C represents an MIC of <1 μg/mL) | B (B represents an MIC between 1 and 16 μg/mL inclusive) | 100 to 1000 |
| CC(C)(C(=O)N[C@H]1Cc2cccc(C(=O)O)c2OB1O)n1cc(CNCCN)nn1 [Example 60, (R)-3-(2-(4-(((2-aminoethyl)amino)methyl)-1H-1,2,3-triazol-1-yl)-2-methylpropanamido)-2-hydroxy-3,4-dihydro-2H-benzo[e][1,2]oxaborinine-8-carboxylic acid] | < 100 | B (B represents an MIC between 1 and 16 μg/mL inclusive) | B (B represents an MIC between 1 and 16 μg/mL inclusive) | < 100 | < 100 | C (C represents an MIC of <1 μg/mL) | < 100 | B (B represents an MIC between 1 and 16 μg/mL inclusive) | C (C represents an MIC of <1 μg/mL) | C (C represents an MIC of <1 μg/mL) | 100 to 1000 |
| NC1CN(C(=O)c2cn(CC(=O)N[C@H]3Cc4cccc(C(=O)O)c4OB3O)nn2)C1 [Example 80, (R)-3-(2-(4-(3-aminoazetidine-1-carbonyl)-1H-1,2,3-triazol-1-yl)acetamido)-2-hydroxy-3,4-dihydro-2H-benzo[e][1,2]oxaborinine-8-carboxylic acid] | < 100 | B (B represents an MIC between 1 and 16 μg/mL inclusive) | B (B represents an MIC between 1 and 16 μg/mL inclusive) | < 100 | 100 to 1000 | C (C represents an MIC of <1 μg/mL) | 100 to 1000 | C (C represents an MIC of <1 μg/mL) | C (C represents an MIC of <1 μg/mL) | B (B represents an MIC between 1 and 16 μg/mL inclusive) | < 100 |
| NCCn1cc(C(=O)N[C@H]2Cc3cccc(C(=O)O)c3OB2O)nn1 [Example 59, (R)-3-(1-(2-aminoethyl)-1H-1,2,3-triazole-4-carboxamido)-2-hydroxy-3,4-dihydro-2H-benzo[e][1,2]oxaborinine-8-carboxylic acid] | < 100 | A (A represents an MIC>16 μg/mL) | B (B represents an MIC between 1 and 16 μg/mL inclusive) | < 100 | 1000 to 10000 | C (C represents an MIC of <1 μg/mL) | < 100 | C (C represents an MIC of <1 μg/mL) | C (C represents an MIC of <1 μg/mL) | B (B represents an MIC between 1 and 16 μg/mL inclusive) | < 100 |
| N=C(N)NCCn1nnc(CC(=O)N[C@H]2Cc3cccc(C(=O)O)c3OB2O)n1 [Example 48, (R)-3-(2-(2-(2-guanidinoethyl)-2H-tetrazol-5-yl)acetamido)-2-hydroxy-3,4-dihydro-2H-benzo[e][1,2]oxaborinine-8-carboxylic acid] | < 100 | B (B represents an MIC between 1 and 16 μg/mL inclusive) | B (B represents an MIC between 1 and 16 μg/mL inclusive) | < 100 | 1000 to 10000 | C (C represents an MIC of <1 μg/mL) | < 100 | C (C represents an MIC of <1 μg/mL) | C (C represents an MIC of <1 μg/mL) | B (B represents an MIC between 1 and 16 μg/mL inclusive) | < 100 |
| CNCc1nnn(CC(=O)N[C@H]2Cc3cccc(C(=O)O)c3OB2O)c1CO [Example 14, (R)-2-hydroxy-3-(2-(5-(hydroxymethyl)-4-((methylamino)methyl)-1H-1,2,3-triazol-1-yl)acetamido)-3,4-dihydro-2H-benzo[e][1,2]oxaborinine-8-carboxylic acid] | 100 to 1000 | B (B represents an MIC between 1 and 16 μg/mL inclusive) | B (B represents an MIC between 1 and 16 μg/mL inclusive) | < 100 | 100 to 1000 | C (C represents an MIC of <1 μg/mL) | 100 to 1000 | B (B represents an MIC between 1 and 16 μg/mL inclusive) | B (B represents an MIC between 1 and 16 μg/mL inclusive) | B (B represents an MIC between 1 and 16 μg/mL inclusive) | 100 to 1000 |

Source: patent US11046716B2, “Beta-lactamase inhibitors” (priority 2015, dated 2021)
